The structures appear in SMILES notation.

The subject of series [1] is T. cruzi amastigotes (Tulahuen C2C4 LacZ strain). As to the kind of experiment: microbe, parasite or virus in culture. The series is classed as cell-based, Trypanosoma cruzi. The note with it: Trypanosoma cruzi, TULAHUEN; for viability at 50 µM: LLC-MK2, 120 h, screening at 50 μM, 120 h, compared with untreated controls. On the procedure:
To a monolayer of 1.0 × 10^7 LLC-MK2 cells in a 150 cm^2 culture flask were added 5.0 × 10^7 trypomastigotes of T. cruzi expressing the […] (Tulahuen C2C4 LacZ) in complete DMEM with 2.5% FBS. The infection was allowed to occur for 24 h, the supernatant was removed, and the cell monolayer was washed with PBS. Complete DMEM with 2.5% FBS was renewed every 2 days up to the sixth day after infection. Trypomastigote forms were collected daily from the supernatant between days 7 and 12 after infection, enriched by differential centrifugation (1500× g for 10 min, 5580× g for 20 min), and resuspended in complete DMEM with 5% FBS. Parasite density was determined by counting the mobile trypomastigotes on Neubauer chambers before use.
. The medium was renewed, and trypomastigote forms of T. cruzi (Tulahuen C2C4 LacZ strain, 2.0 × 10^5 parasites per well) were added. After incubation for 24 h at 37 °C in 5% CO2, the cell monolayer was washed with PBS to remove noninternalized parasites. DMEM without phenol red and 5% FBS was added, and infected cells were treated with compounds at a range of concentrations in triplicate (50 μM or 100–1 μM). Untreated infected cells and noninfected LLC-MK2 cells were used as negative and positive controls, respectively. Vehicle control containing DMEM without phenol red and 0.3% DMSO was maintained for comparison. After incubation for 120 h at 37 °C in 5% CO2, a solution containing […] and 0.8% IGEPAL CA-630 in PBS (30 µL per well), followed by further incubation for 2 h at 37 °C in 5% CO2. Absorbance was measured using a microplate reader at 570 nm.
(§1) The percent cell or parasite viability was calculated by the formula: % viability = [(A − P)/(N − P)] × 100, A = absorbance of specific well, P = positive control, N = negative control. Determination of half-maximal effective concentrations (EC50), calculated by logarithmic regression, and significance analysis (p < 0.05), using ANOVA and Dunnett’s test, by GraphPad Prism 7.0 software. The results are expressed as the mean and standard deviation (SD) of three independent experiments.

The next series concerns LLC-MK2 cells. As to the kind of experiment: Cytotoxicity to LLC-MK2 host cells (MTT). The note with it: Macaca mulatta, LLC-MK2; 120 h, MTT. The series is classed as cell-based. Here is the method:
(§2) LLC-MK2 kidney fibroblasts (ATCC) and RAW 264.7 macrophages (ATCC) were cultivated in culture flasks in complete DMEM with 5% FBS at 37 °C in 5% CO2. The LLC-MK2 cell monolayer was detached by treatment with trypsin-EDTA 0.05% for 5 min at 37 °C. The RAW cell monolayer was detached mechanically. In both cases, the cells were centrifuged at 480× g for 6 min and resuspended in complete DMEM with 5% FBS, and the cell density was determined by counting with trypan-blue dye exclusion on Neubauer chambers before use.
(§3) LLC-MK2 cells were seeded in a 96-well microplate (1.0 × 10^4 cells per well) in complete DMEM with 5% FBS (120 µL per well). After incubation for 24 h at 37 °C in 5% CO2, the medium was renewed, and compounds were added at a range of concentrations in triplicate (50 μM or 100–1 μM). Untreated cells and cells treated with DMEM and 10% DMSO were used as negative and positive controls, respectively. Vehicle control containing DMEM and 0.3% DMSO was maintained for comparison. After incubation for 120 h at 37 °C in 5% CO2, the medium was renewed, and MTT salt solution in PBS was added (3.0 mM, 20 µL per well). After incubation for 2 h at 37 °C in 5% CO2, the supernatant was removed, and MTT formazan was dissolved in DMSO (150 µL per well). Absorbance was measured using a microplate reader at 570 nm.
as §1

Another series has as its system K562. As to the kind of experiment: MTT cytotoxicity to CML cell line K562. The note with it: Homo sapiens, 72 h. The series is classed as cell-based. Here is the method:
(§4) The CML cell lines K562, Lucena-1 (K562/VCR), and FEPS (K562/DNR) were cultured in RPMI-1640 medium supplemented with 25 mM HEPES and 2 g L^−1 sodium bicarbonate adjusted to pH 7.4 with NaOH, 100 U penicillin and […] streptomycin. All media were supplemented with 10% FBS. Dr. Vivian M. Rumjanek (Instituto de Bioquímica Médica, UFRJ, Brazil) kindly donated Lucena-1 and FEPS cells. Briefly, K562 cells were exposed to increasing concentrations of the chemotherapeutic drugs vincristine sulfate (VCR) and daunorubicin hydrochloride (DNR) (both from Sigma-Aldrich), as described previously. Lucena-1 (K562/VCR) and FEPS (K562/DNR) cells were cultured in the presence of either 60 nM VCR or 500 nM DNR to maintain the MDR phenotypes. For subcultures, cells were harvested every three days followed by washing with cold FBS, and a final concentration of 2 × 10^4 cells mL^−1 was maintained at 37 °C in 5% CO2.
(§5) Cell viability was determined by the 3-(4,5-dimethylthiazol-2-yl)-2,5-diphenyltetrazolium (MTT) colorimetric assay. CML cells (2 × 10^4 cells·mL^−1) were incubated for 72 h at 37 °C, followed by treatment with compounds at a range of concentrations (100–1 μM). Negative controls were prepared with 0.5% DMSO. An MTT salt solution was added to each well to a final concentration of 0.5 g·L^−1, and plates were incubated at 37 °C in 5% CO2 for 3 h. After centrifugation, 200 μL DMSO was added to dissolve the dark-blue formazan crystals formed by MTT reduction. Absorbance was measured on a microplate reader at 570 nm, which is directly proportional to formazan contents and indicative of living cells.
as §1

Another series deals with Lucena-1 (K562/VCR). The experiment in a line: cells. The series is classed as cell-based, human. The note with it: for RR (relative resistance) Lucena-1: (EC50 MDR cells)/(EC50 parental cells), Lucena-1/K562; for EC50: Homo sapiens, Lucena 1, 72 h, read-out: EC50 Lucena-1. Here is the method:
as §4, §5, §1

A further series deals with FEPS (K562/DNR). As to the kind of experiment: MTT cytotoxicity to MDR CML cell line FEPS. The series is classed as cell-based, human. The note with it: for RR (relative resistance) FEPS: (EC50 MDR cells)/(EC50 parental cells), FEPS/K562; for EC50: Homo sapiens, K562, 72 h, MTT. Here is the method: as §4, §5, §1
A short description of series [2]: Cytotoxicity to LLC-MK2 host cells (MTT). The series is classed as cell-based. The note with it: rhesus monkey, screening at 50 μM, 120 h. Here is the method:
as §2, §3, §1

The test system of series [3] is L. amazonensis promastigotes. As to the kind of experiment: Anti-L. amazonensis promastigote assessment (MTT). The series is classed as cell-based. The note with it: Leishmania amazonensis; 48 h, MTT; read-out: EC50 L. amazonensis promastigotes. Here is the method:
Promastigotes of L. amazonensis (MHOM/BR/75/Josefa) were cultured in Schneider’s insect medium (SIM) with 10% FBS. Parasites were harvested at the stationary growth phase for assessment against promastigotes and 24 h after cultures reached the stationary growth phase for infection assays. […]. Complete SIM media and amphotericin B (AmB) at 10 µM were used as negative and positive controls, respectively. A vehicle control containing SIM with 10% SFB media and 0.3% DMSO was maintained for comparison. The final volume of the experiment was 100 µL. After incubation for 48 h at 27 °C, MTT salt solution in PBS was added (3.0 mM, 20 µL per well). After incubation for 2 h at 27 °C, the MTT formazan was dissolved by adding 120 µL of solubilizing buffer (50% isopropanol, 40% acetate buffer pH 5.4, 10% Triton-X). Absorbance was measured using a microplate reader at 570 nm.
as §1

Series [4] is described as follows: Cytotoxicity to BALB/c mouse total splenocytes (MTT). The note with it: male, total splenocytes (primary), 100 μM, 48 h, compared to the untreated control (Table S1). It is filed as cell-based. Here is the method:
BALB/c mouse total splenocytes were harvested from male mice between 6–8 weeks old. After euthanasia, the spleens were removed and macerated in DMEM. After centrifugation, the cells were treated with hemolytic ACK buffer at 37 °C for 5 min. […] After incubation for 48 h at 37 °C in 5% CO2, cell viability was determined after the addition of 20 µL per well of a solution containing MTT salt (3.0 mM) and phenazine metasulphate (0.72 mM). After further incubation for 1 h at 37 °C, the medium was removed, and DMSO was added to dissolve the dark-blue formazan crystals formed by MTT reduction. Absorbance was measured on a microplate reader at 570 nm.
as §1

Where [5] appears, read: LLC-MK2 cells (kidney fibroblasts).

The viability is a per cent measure of how many cells are alive, often set against a control. What is called EC50 is the concentration that produces a half-maximal response. In series [1], `O=C(Cn1ccnc1[N+](=O)[O-])NCc1ccccc1` [Benznidazole, reference compound] gave a viability at 50 µM of 23.2 ± 1.4%. The EC50 in series [1] (in LLC-MK2, 120 h, read-out: EC50 T. cruzi intracellular amastigotes) was 1500 ± 200 nM; in the series with LLC-MK2 cells, greater than 100 µM.

One may read the melting point as the temperature, or range, at which the solid turns liquid. For `C(=C\c1nc(-c2ccccc2)no1)/c1ccc2c(c1)OCO2` [Compound 13, (E)-3-phenyl-5-[2-(3,4-methylenedioxy-phenyl)vinyl]-1,2,4-oxadiazole], the melting point fell in the range of 157 to 159 °C. Moreover, in the series on K562, the EC50 was 92.3 ± 4.2 µM. In the series with Lucena-1 (K562/VCR), the “RR (relative resistance) Lucena-1” value was 0.50 and the EC50 was 46.5 ± 1.9 µM. Also, in the series with FEPS (K562/DNR), the “RR (relative resistance) FEPS” value is recorded as 0.74 and the EC50 was determined as 68.5 ± 8.7 µM. In series [1], this compound registered a viability at 50 µM of 72 ± 3.7%. In [2] (setting [5]), this compound displayed a viability at 120 h, 50 µM of 75.9 ± 1.3%. Also, in series [3], the EC50 was greater than 100 µM. This compound yielded a viability at 48 h, 100 µM in [4] of 98.8 ± 5.1%.

As to `COc1cccc(/C=C/c2nc(-c3ccccc3)no2)c1` [Compound 10, (E)-3-phenyl-5-[2-(3-methoxyphenyl)vinyl]-1,2,4-oxadiazole], the melting point was in the range of 88 to 90 °C. The same compound came in with a concentration giving a half-maximal response (EC50) in the series on K562 greater than 100 µM. Also, the EC50 with Lucena-1 (K562/VCR) is greater than 100 µM. For the same compound, the EC50 in the series on FEPS (K562/DNR) was greater than 100 µM. The compound further gave a viability at 50 µM in series [1] of 77.7 ± 6.3%. Moreover, the viability at 120 h, 50 µM in series [2] (setting [5]) is 86.6 ± 3.6%. In series [3], the 50% effective concentration (EC50) was determined as 50.8 ± 6.3 µM. Further, the viability at 48 h, 100 µM in series [4] is 85.4 ± 4%.

Consider `COc1cc(-c2noc(/C=C/c3ccccc3)n2)cc(OC)c1OC` [Compound 21, (E)-3-(3,4,5-trimethoxyphenyl)-5-[2-phenylvinyl]-1,2,4-oxadiazole], for which the melting point lay in the range of 138 to 140 °C. In the series with K562, this compound returned a 50% effective concentration (EC50) greater than 100 µM. Moreover, in the series with Lucena-1 (K562/VCR), the “RR (relative resistance) Lucena-1” value was less than 0.69 and the EC50 worked out at 68.6 ± 10.1 µM. In the series on FEPS (K562/DNR), the “RR (relative resistance) FEPS” value is recorded as less than 0.28 and the EC50 is 27.7 ± 5.2 µM. Moreover, the viability at 50 µM in series [1] was found to be 77.3 ± 2%. The viability at 120 h, 50 µM in [2] (setting [5]) was 88.5 ± 4.7%. The EC50 in series [3] is greater than 100 µM. The compound also came in with a viability at 48 h, 100 µM in series [4] of 76.8 ± 6.6%.

As for `C(=C\c1nc(-c2ccccc2)no1)/c1ccco1` [Compound 16, (E)-3-phenyl-5-[2-fur-2-yl-vinyl]-1,2,4-oxadiazole], the melting point was in the range of 83 to 85 °C. A half-maximal response with K562 (EC50) required 52.8 ± 17.7 µM. Moreover, in the series on Lucena-1 (K562/VCR), the “RR (relative resistance) Lucena-1” value is recorded as 1.23 and the EC50 amounted to 65 ± 9.6 µM. Besides, in the series with FEPS (K562/DNR), the “RR (relative resistance) FEPS” value was found to be 1.03 and the midpoint of the response, the EC50, lay at 54.7 ± 1.7 µM. The same compound yielded a viability at 50 µM in series [1] of 83 ± 3.7%. Also, the viability at 120 h, 50 µM in series [2] (setting [5]) turned out to be 89.2 ± 1.4%. Besides, the half-maximal effective concentration (EC50) in series [3] was 47.1 ± 3.7 µM. The same compound had a viability at 48 h, 100 µM in series [4] of 53.5 ± 5.2%.

In turn, `C(=C\c1cccs1)/c1nc(-c2ccccc2)no1` [Compound 17, (E)-3-phenyl-5-[2-thiophen-2-yl-vinyl]-1,2,4-oxadiazole] displayed a melting point of 93 to 95 °C. In the series on K562, this compound displayed an EC50 greater than 100 µM. In the series with Lucena-1 (K562/VCR), the “RR (relative resistance) Lucena-1” value is listed as less than 0.72 and the concentration giving a half-maximal response (EC50) was 71.9 ± 0.6 µM. Also, in the series with FEPS (K562/DNR), the “RR (relative resistance) FEPS” value is on record as less than 0.56 and a half-maximal effect (EC50) was put at 55.7 ± 17.2 µM. The compound also came in with a viability at 50 µM in [1] of 69.6 ± 6.3%. In series [2], this compound displayed a viability at 120 h, 50 µM of 86.2 ± 7.1%. Further, in [3], the concentration giving a half-maximal response (EC50) was 77.6 ± 6.3 µM. This compound also displayed a viability at 48 h, 100 µM in series [4] of 99 ± 8.4%.

The values are drawn from article PMC9787607, “A Novel Protocol for the Synthesis of 1,2,4-Oxadiazoles Active against Trypanosomatids and Drug-Resistant Leukemia Cell Lines” (Tropical Medicine and Infectious Disease, 2022).
